Test results as given in publication PMC7915902, “Preclinical Evaluation of [^18F]FACH in Healthy Mice and Piglets: An ^18F-Labeled Ligand for Imaging of Monocarboxylate Transporters with PET” (International Journal of Molecular Sciences, 2021).
pIC50: −log10 of the molar value. Where “and” joins values, the source holds several entries; their conditions need not be identical. Equal entries are not always repeated.

Key:
plasma protein = experiment: Plasma protein binding in vitro (ultrafiltration); type: in vitro ADME, piglet; conditions: pig plasma, 20 min at 37 °C
Protocol: To measure plasma protein binding in vitro, a 1 mL portion of piglet plasma was incubated with 4.9 MBq [^18F]FACH (10 µL) on a shaker (400 rpm) for 20 min at 37 °C. The plasma protein binding was also measured ex vivo in 10 µL portions of mouse plasma from retro-orbital blood samples collected 70 min after intravenous (i.v.) injection of 3.7 MBq [^18F]FACH via a tail vein. The free and bound fractions of [^18F]FACH were separated by centrifugation at room temperature (2000 g for ten minutes, Centrifree® YM-30, Ultrafiltration Device; Merck KGaA, Darmstadt, Germany). Radioactivity was measured in aliquots of ultrafiltrate and in prefiltration plasma samples, using a Wizard 2470 γ-counter (PerkinElmer LAS, Rodgau, Germany), and the free fraction in the plasma (fp) calculated from the concentration ratio.

MCTs [1] = experiment: Ex vivo biodistribution in mice; set-up: species or system mouse; conditions: for SUV adipose tissue / SUV adrenal gland / SUV bladder / SUV blood / SUV brain / SUV caecum / SUV femur / SUV gall bladder / SUV heart / SUV kidney / SUV large intestine / SUV liver / SUV lung / SUV ovar / SUV pancreas / SUV plasma / SUV small intestine / SUV spleen / SUV stomach / SUV urine: ex vivo, control
Protocol: Adult mice (28 to 39 g bodyweight) under isoflurane anesthesia were pre-treated by i.v. injection of saline as control (n = 3 for each time point) or 25 mg/kg α-CCA-Na (n = 3 for each time point) ten min before i.v. injection of [^18F]FACH (0.53 ± 0.06 MBq, 0.14 to 0.29 pmol/g bodyweight). The animals were euthanized by anesthesia overdose and cervical dislocation at five, 15 and 30 min after i.v. [^18F]FACH administration, and the radioactivity concentrations in harvested tissues were measured by a gamma counter (PerkinElmer), decay-corrected and normalized to the administered dose and tissue weight, and expressed as SUV in their harvested tissues. The red blood cell to plasma ratio was calculated as described by Bower et al.

MCTs [2] = experiment: Dynamic PET/MRI in mice with pre-treatment; type: in vivo, mouse; conditions: mice, PET
Protocol: The biodistribution of [^18F]FACH in mice was assessed by small animal PET (Nanoscan, Mediso, Budapest, Hungary) with dynamic 60 min emission recordings, followed by T1 weighted GRE MR (TR = 15.0 ms, TE = 2.4 ms, FA = 25°) imaging for anatomical correlations and attenuation correction. The mice (n = 20) weighing 32.2 ± 2.9 g were anaesthetised with 2% isoflurane in 60% oxygen, and placed on a thermostatically heated animal bed. The animals then received i.v. injections of 0.9% saline (control), reference compound (10 mg/kg), or α-CCA-Na (25 mg/kg) ten min prior or 20 min after (displacement studies) [^18F]FACH administration (2.3–8.6 MBq, 0.5–11.2 nmol/kg). List mode PET data were binned as a series of attenuation-corrected sinogram frames (12 × 10 s, 6 × 30 s, 5 × 60 s and 10 × 300 s) and were reconstructed by Ordered Subset Expectation Maximization (OSEM3D) with four iterations, six subsets and a voxel size of 0.4 mm³ (Nucline v2.01, Mediso).
The analysis of reconstructed datasets was performed with PMOD software (v4.103, PMOD Technologies LLC, Zurich, Switzerland).
Data are shown in mean ± standard deviation (SD). Group differences were tested by Student’s t-test, with p < 0.05 designated as significant. Area Under the Curves (AUCs) and corresponding 95% confidence intervals (CI95%s) were calculated with GraphPad Prism (v.8.2) following the assumptions described by Gagnon et al..

MCT4 = tested on: MCT4; set-up: method as in PMID 31017677; conditions: L-[14C]lactate uptake, MDA-MB231 cells; read-out: IC50 towards MCT4; cited from earlier work

free plasma fraction (fp) (plasma protein): 0.03 | red blood cell to plasma ratio (MCTs [1]; biodistribution studies): < 0.1 | SUV adipose tissue (MCTs [1]; 5 min p.i.): 0.12 | SUV adrenal gland (MCTs [1]; 5 min p.i.): 0.80 | SUV bladder (MCTs [1]; 5 min p.i.): 0.17 | SUV blood (MCTs [1]; 5 min p.i.): 1.85 ± 0.29 and 1.85 | SUV brain (MCTs [1]; 5 min p.i.): 0.08 | SUV caecum (MCTs [1]; 5 min p.i.): 0.18 | SUV femur (MCTs [1]; 5 min p.i.): 0.17 | SUV gall bladder (MCTs [1]; 5 min p.i.): 4.61 | SUV heart (MCTs [1]; 5 min p.i.): 0.74 | SUV kidney (MCTs [1]; 5 min p.i.): 7.97 | SUV large intestine (MCTs [1]; 5 min p.i.): 0.24 | SUV liver (MCTs [1]; 5 min p.i.): 9.65 | SUV lung (MCTs [1]; 5 min p.i.): 0.89 ± 0.12 and 0.89 | SUV ovar (MCTs [1]; 5 min p.i.): 0.38 | SUV pancreas (MCTs [1]; 5 min p.i.): 0.51 | SUV plasma (MCTs [1]; 5 min p.i.): 3.77 ± 0.57 and 3.77 | SUV small intestine (MCTs [1]; 5 min p.i.): 0.56 | SUV spleen (MCTs [1]; 5 min p.i.): 0.37 | SUV stomach (MCTs [1]; 5 min p.i.): 0.16 | SUV urine (MCTs [1]; 5 min p.i.): 0.82 | SUV adipose tissue (MCTs [1]; 15 min p.i.): 0.18 | SUV adrenal gland (MCTs [1]; 15 min p.i.): 0.94 | SUV bladder (MCTs [1]; 15 min p.i.): 0.35 | SUV blood (MCTs [1]; 15 min p.i.): 0.91 | SUV brain (MCTs [1]; 15 min p.i.): 0.04 | SUV caecum (MCTs [1]; 15 min p.i.): 0.15 | SUV femur (MCTs [1]; 15 min p.i.): 0.12 | SUV gall bladder (MCTs [1]; 15 min p.i.): 5.36 | SUV heart (MCTs [1]; 15 min p.i.): 0.53 | SUV kidney (MCTs [1]; 15 min p.i.): 12.81 | SUV large intestine (MCTs [1]; 15 min p.i.): 0.19 | SUV liver (MCTs [1]; 15 min p.i.): 10.65 | SUV lung (MCTs [1]; 15 min p.i.): 0.59 | SUV ovar (MCTs [1]; 15 min p.i.): 0.33 | SUV pancreas (MCTs [1]; 15 min p.i.): 0.44 | SUV plasma (MCTs [1]; 15 min p.i.): 1.76 | SUV small intestine (MCTs [1]; 15 min p.i.): 0.66 | SUV spleen (MCTs [1]; 15 min p.i.): 0.21 | SUV stomach (MCTs [1]; 15 min p.i.): 0.13 | SUV urine (MCTs [1]; 15 min p.i.): 4.32 | SUV adipose tissue (MCTs [1]; 30 min p.i.): 0.15 | SUV adrenal gland (MCTs [1]; 30 min p.i.): 0.51 | SUV bladder (MCTs [1]; 30 min p.i.): 0.31 | SUV blood (MCTs [1]; 30 min p.i.): 0.82 ± 0.05 and 0.82 | SUV brain (MCTs [1]; 30 min p.i.): 0.04 | SUV caecum (MCTs [1]; 30 min p.i.): 0.19 | SUV femur (MCTs [1]; 30 min p.i.): 0.15 | SUV gall bladder (MCTs [1]; 30 min p.i.): 10.96 | SUV heart (MCTs [1]; 30 min p.i.): 0.58 | SUV kidney (MCTs [1]; 30 min p.i.): 15.97 ± 1.07 and 15.97 | SUV large intestine (MCTs [1]; 30 min p.i.): 0.26 | SUV liver (MCTs [1]; 30 min p.i.): 8.48 | SUV lung (MCTs [1]; 30 min p.i.): 0.52 ± 0.02 and 0.52 | SUV ovar (MCTs [1]; 30 min p.i.): 0.32 | SUV pancreas (MCTs [1]; 30 min p.i.): 0.38 | SUV plasma (MCTs [1]; 30 min p.i.): 1.69 ± 0.17 and 1.69 | SUV small intestine (MCTs [1]; 30 min p.i.): 1.11 | SUV spleen (MCTs [1]; 30 min p.i.): 0.22 | SUV stomach (MCTs [1]; 30 min p.i.): 0.20 | SUV urine (MCTs [1]; 30 min p.i.): 4.57 | peak TAC SUV whole blood (MCTs [2]; left heart ventricle VOI, all three treatment groups): 6.8 ± 1.3 | AUC0–60 min gall bladder (MCTs [2]; vehicle pre-treatment): 481 SUV min | AUC0–60 min kidney cortex (MCTs [2]; vehicle pre-treatment): 290 SUV min | AUC0–60 min liver (MCTs [2]; vehicle pre-treatment): 450 SUV min | AUC0–60 min small intestine (MCTs [2]; vehicle pre-treatment): 99 SUV min | AUC0–60 min whole blood (MCTs [2]; vehicle pre-treatment): 59 SUV min
SMILES: CCCN(CCC[18F])c1ccc(/C=C(\C#N)C(=O)O)c(OC)c1 [[^18F]FACH, (E)-2-cyano-3-{4-[(3-[^18F]fluoropropyl)(propyl)amino]-2-methoxyphenyl}acrylic acid]
pIC50 (MCT4): 8.19
